Reference: a melting point compilation (Tetko et al.; mined from patent text by program, amines drawn as free bases though some values may be those of a salt)

Work on `Cn1nc2ccc(OCCCN3CCC(OC(c4ccccc4)c4ccccc4)CC3)nn2c1=O` yielded a melting point of 139 to 140 °C. For `O=C(OCc1ccccc1)N1CCc2c(sc3nc(CCl)c(Cl)c(-c4ccc(OCc5ccccc5)cc4)c23)C1`, the melting point was 144 to 145 °C. `O=c1[nH][nH]c(=O)c2c(O)c3c(C(F)(F)F)cccc3nc12` gave a melting point of 180 to 182 °C. For `O=C(O)Cn1c(Cc2ccccc2)ccc1-c1ccccc1`, the melting point was 137 to 139 °C. In the case of `Cc1cccc(-c2cccc3c2OC(CN)C3)c1C` (stereo unspecified), the melting point is reported as > 225 °C. `C=C(C)C#Cc1cccc2c1C(=O)OC(C)(C)O2` showed a melting point of 60 °C. Compound `NS(=O)(=O)c1ccccc1-n1cccn1` has a melting point of 167 to 170 °C. In the case of `Cc1cc(NS(=O)(=O)c2cc(C3(O)CCC(=O)N3C)ccc2Cl)cc(C(C)(C)C)c1O` (stereo unspecified), the melting point is reported as 120 °C. With `Cc1cc(F)ccc1-c1ccc(S(=O)(=O)N2c3ccccc3CC2C(=O)NCCOc2ccc(C(=O)OC(C)(C)C)cc2)cc1` (stereo unspecified) the melting point was 84 °C. `CC(=O)c1ccc2nc(NC(=O)c3ccc(C(C)(C)C)cc3)cn2n1` showed a melting point of 237 to 238 °C. In the case of `CCN1C(=O)C(C)(C)C(=O)N(C)c2cc(OCCCN3C(=O)C(c4ccccc4)Cc4ccccc43)ccc21` (stereo unspecified), the melting point is reported as 100 to 105 °C. Work on `CCC1(CC(=O)OC)OCC(O)c2c1[nH]c1ccccc21` (stereo unspecified) yielded a melting point of 86 to 90 °C. Compound `CCN(CC)C(=O)c1ccc(OC)cc1` has a melting point of 40 to 42 °C. In the case of `CC(C)(C)OC(=O)C(=[N+]=[N-])C(=O)CCl`, the melting point is reported as 40 to 41 °C. In the case of `CC(=O)N1C(SCc2ccccc2N(C)C)=NC(=O)C1(C)C`, the melting point is reported as 99 to 100 °C. `CC(C)C[C@H](NC(=O)[C@@H](O)[C@@H](Cc1ccc(S(C)(=O)=O)cc1)NC(=O)OCc1ccccc1)C(=O)OCc1ccccc1` showed a melting point of 136 to 138 °C. Compound `O=C(O)C=Cc1nn(-c2ccccc2)c2c1CCC2` has a melting point of 223 °C. Work on `C=CC(c1ccc(C(C)C)cc1)c1c(C)c(NC=O)c(C)c(C)c1O` (stereo unspecified) yielded a melting point of 170 to 171 °C. `COc1cccc(Oc2ccc([N+](=O)[O-])c(C(=O)O)c2)c1` showed a melting point of 146 to 151 °C. `CC(C)(C)OC(=O)C(C1NC(C(=O)OCc2ccccc2)C2(CCSCC2)S1)N1C(=O)c2ccccc2C1=O` (stereo unspecified) gave a melting point of 197 to 198 °C. With `CCOC(=O)C1=C(C)N(C)C(C)=C(C(=O)OCC)C1c1ccc(OC(C)(C)C(=O)OCC)cc1` the melting point was 88 °C. `COc1cc(Nc2c(C#N)cnc3cc4cc(OC)c(OCCN5CCN(C)CC5)cc4cc23)c(Cl)cc1C` gave a melting point of 220 to 227 °C. `Cc1cccc(C2(c3ccc(F)c(-c4ccc(NC(=O)NN5CCOCC5)cc4)c3)CNC(C(C)C)=N2)n1` (stereo unspecified) showed a melting point of 141 to 143 °C. In the case of `O=C(N1CCNc2ccccc2C1)n1ccnc1`, the melting point is reported as 98 to 101 °C. Compound `CC(C)(O)c1ccc(CNC(=O)c2cccnc2Oc2ccc(F)cc2)cc1` has a melting point of 106 to 108 °C. Work on `CC(=O)c1ccc(SCC(=O)O)cc1` yielded a melting point of 151 to 153 °C. With `CCOC(=O)CCCn1c(Nc2c(C)noc2C)nc2c(Cl)ccc(C(CC)CC)c21` the melting point was 135 to 138 °C. In the case of `COC(=O)N1CCN(c2ccc(N3CC(CNC(C)=O)OC3=O)cc2F)CC1` (stereo unspecified), the melting point is reported as 177 to 179 °C. For `CCC[C@@](CCc1ccccc1)(CC(=O)OCOc1ccc(-c2ccccc2)cc1)OCOc1ccc(-c2ccccc2)cc1`, the melting point was 104 to 106 °C. Work on `CCOC(=O)c1cn(C)c2cnc3cc(N4CCN(c5ccc(F)cc5)CC4)c(F)cc3c2c1=O` yielded a melting point of 300 °C. With `COc1ccc(-c2nn(Cc3ccc(Cl)cc3)c(=O)cc2-c2ccncc2)cc1` the melting point was 175 to 176 °C. For `Clc1cc(Br)c2ccccc2c1Cl`, the melting point was 84 to 86 °C. For `O=C1CCC(Nc2ncc3ncnc(Nc4ccc(F)c(Cl)c4)c3n2)CC1`, the melting point was 232 to 234 °C. `N#CCCCCCC#Cc1nc(N)c2ncn(C3OC(CO)C(O)C3O)c2n1` (stereo unspecified) showed a melting point of 99 to 101 °C. `Nc1ccnc(SCCCCN2C(=O)c3ccccc3C2=O)n1` showed a melting point of 164 to 167 °C. Compound `CS(=O)(=O)c1ccc(-c2[nH]nc(OC3CCCCC3=O)c2-c2ccc(F)cc2)cc1` (stereo unspecified) has a melting point of 113 to 116 °C. Work on `C=CCN1Cc2nc3c(cnn3C=C)c(N)c2C1=O` yielded a melting point of 190 to 191 °C. `CC1(C)CC(=O)c2cc(C#N)c(N3CCCCC3)nc2C1` gave a melting point of 99 to 100 °C. Compound `CCCc1nn(-c2ccc(C(F)(F)F)cn2)cc1COc1cccc(CC(=O)O)c1` has a melting point of 77 to 78 °C. In the case of `COc1cc(C(=O)NS(=O)(=O)c2ccccc2C)ccc1Cc1cccc2ccc(CCCCC(=O)N(C)C)cc12`, the melting point is reported as 88 to 93 °C. For `Cc1ccc2c(c1)c(N1CCNCC1)c(C#N)c(=O)n2Cc1ccc(F)cc1`, the melting point was 121 °C. `CC(C)C1=NC(NC(=O)CCc2ccc(Cl)cc2Cl)C(=O)N(C)c2ccccc21` (stereo unspecified) gave a melting point of 173 to 174 °C. In the case of `O=C(O)Cc1ccc2c(c1)C(O)c1ccccc1CO2` (stereo unspecified), the melting point is reported as 132 to 134 °C. `Brc1cccc(-c2csc(Br)n2)c1` showed a melting point of 88 to 90 °C. In the case of `C[C@H](NC(=O)C12CC3CC(CC(C3)C1)C2)C(=O)N1CCC[C@H]1C(=O)Nc1ccccc1`, the melting point is reported as 119 to 121 °C. In the case of `CC1CCCC1(Oc1ccc(CC(=O)c2ccc3c(c2)CCC3)cc1)C(=O)O` (stereo unspecified), the melting point is reported as 191 to 193 °C. `CCc1noc(-c2cc3c(cn2)[nH]c2ccc(N(C)C)cc23)n1` showed a melting point of 235 to 240 °C. For `Cc1c(C(=O)O)ccc2c1[nH]c1ccccc12`, the melting point was > 240 °C. Compound `CC(C)(C)OC(=O)N[C@@H](CC(=O)OCc1ccccc1)C(=O)NCCc1ccc(C(=O)OCc2ccccc2)cc1` has a melting point of 99 to 100 °C. In the case of `CCOC(=O)/C=C/c1ccccc1C1C(C(=O)OCC)=C(C)NC(C)=C1C(=O)OCC`, the melting point is reported as 130 to 131 °C. Compound `CC(CN1CCCC1)N1c2ccccc2Sc2ccc(C(=O)NCc3ccccc3[N+](=O)[O-])cc21` (racemic) has a melting point of 95 °C. For `CCCCc1nn(-c2cc(NC(C)=O)ccc2Cl)c(=O)n1Cc1ccc(-c2cc(CCC)ccc2S(=O)(=O)NC(=O)c2ccccc2F)cc1F`, the melting point was 148 to 150 °C. Compound `CN1C(=O)N(C[C@@H](CCS(=O)(=O)c2ccc(Oc3ccc(F)cc3)cc2)N(O)C=O)C(=O)C1(C)C` has a melting point of 105 °C. With `CC1NC(=O)NN=C1c1ccccc1O` (stereo unspecified) the melting point was 257 to 261 °C. Work on `CC1C(=O)OC2COCC21` (stereo unspecified) yielded a melting point of 89.5 to 90 °C. With `O=CC(=Cc1ccc(OCc2ccccc2)cc1)C(C=O)=Cc1ccc(OCc2ccccc2)cc1` the melting point was 119 to 120 °C. Compound `O=C(NCc1ccccc1)c1cccc(-c2nc(=O)c3ccccc3s2)n1` has a melting point of 197 to 198 °C. Work on `O=C(NCCCCC1CCSS1)N1CCSCC1` (stereo unspecified) yielded a melting point of 80 to 81 °C. `CCCCCCC(=O)c1ccc2c([N+](=O)[O-])c(O)c(O)cc2c1` showed a melting point of 97 to 98 °C. With `C[C@H]([C@](O)(Cn1cncn1)c1ccc(F)cc1F)S(=O)(=O)N1CCCC1` the melting point was 149 to 150 °C. Work on `COc1cc(F)ccc1-c1ccc(S(=O)(=O)N2c3ccccc3CC2C(=O)NCCOc2ccc(C(=O)O)cc2)cc1` (stereo unspecified) yielded a melting point of 102 °C. `COc1ccccc1[C@H](c1cccc2ccccc12)[C@@](C)(C#N)C(=O)N1CC=C(c2ccc(Cl)cc2)CC1` gave a melting point of 118 to 122 °C. `COC(=O)CCC(C)C(=O)N[C@@H](C)C(=O)OCc1ccccc1` (stereo partly specified) showed a melting point of 97 to 99 °C. `O=C(O)c1ccc(Cc2ccc(-c3ccccc3-c3nnn[nH]3)cc2)c2[nH]c(OCC(F)(F)F)nc12` gave a melting point of 204 to 206 °C. `CC1(CNC(=O)OCc2ccc(Cl)cc2)Cn2cc([N+](=O)[O-])nc2O1` (stereo unspecified) gave a melting point of 221 to 222 °C. `CC(=O)Nc1ccc(C(C)=O)c2c1OCCO2` gave a melting point of 142 to 144 °C. Work on `N#Cc1cnn2c(C(F)(F)F)cc(-c3ccccc3Cl)nc12` yielded a melting point of 169 °C. `CCCc1nc2c(N)nc3ccccc3c2n1CCOCCCS(=O)(=O)c1ccccc1C` gave a melting point of 159 to 160 °C. `N#Cc1ccccc1OCCCCCCCC(=O)O` showed a melting point of 83 to 85 °C. `Cc1cc(C)c2nc(CO)n(C)c2n1` gave a melting point of 178 to 179 °C. `C#CC(C)N(C)C(=O)Nc1ccc(Oc2cccc(Cl)n2)cc1` (stereo unspecified) gave a melting point of 140 to 142 °C. Work on `Cc1c(-c2ccccc2)oc2c(S(=O)(=O)CCCCl)cccc2c1=O` yielded a melting point of 160 to 163 °C. Compound `C=CCOc1ccc(CCNC(=O)C(F)(F)F)cc1S(=O)(=O)N=CN(C)C` has a melting point of 92 to 93 °C. With `Nc1c(Br)cc2c3c(cccc13)C(=O)N(O)C2=O` the melting point was 318 to 324 °C. Compound `O=c1cc(-c2ccc3nccnc3c2)oc2ncccc12` has a melting point of 272 to 275 °C. For `CC(=O)Nc1ccc(C(C)(C)C)cc1F`, the melting point was 164 to 165 °C. With `CCOC(=O)c1cc2c(C)ccc(N(C)S(=O)(=O)c3cccnc3Cl)c2[nH]1` the melting point was 158 to 159 °C. Compound `O=S(=O)(NCC(O)(Cn1cncn1)c1ccc(Cl)cc1Cl)c1cc(Cl)ccc1Cl` (stereo unspecified) has a melting point of 173 to 174 °C. With `CN1CCC(c2c(O)cc(O)c3c(=O)cc(-c4ccc(O)cc4Cl)oc23)C1CO` (stereo unspecified) the melting point was > 300 °C. For `C=CCOc1cccc2c1C(=O)OC2=O`, the melting point was 115 to 117 °C. In the case of `Nc1nnc(-c2ccc3ncn(-c4ccccc4Cl)c3c2)o1`, the melting point is reported as 254 to 255 °C. Work on `CS(=O)(=O)c1ccc(Cl)c(C(=O)Nc2ccc(-n3nc(C4CC4)cc3C3CC3)cc2)c1` yielded a melting point of 60 to 65 °C. With `COC(=O)NC(=N)C(C)C` the melting point was 127 to 130 °C. `CC1(C)CC(SCc2c(C(F)(F)F)n[nH]c2Cl)=NO1` gave a melting point of 120 to 122 °C. `Cc1cc2c(cnn2-c2c(Cl)cc(C(F)(F)F)cc2Cl)nc1C` showed a melting point of 135 to 136 °C. With `CC(C)(C)NC(=O)c1nn(-c2c(F)cc(F)cc2F)c2c1C1CCC2C1` (stereo unspecified) the melting point was 142 to 146 °C. In the case of `OC(COCc1ccc(Br)cc1)Cn1ccnc1` (stereo unspecified), the melting point is reported as 98 to 100 °C. Work on `O=C(NCc1ccccn1)c1ccnc(N2CCN(CC3CC3)C2=O)c1` yielded a melting point of 122 to 123 °C. In the case of `CCCCCCc1ccc(-c2ccc(-c3ccc(-c4ccc(-c5ccc(-c6ccc(CCCCCC)o6)o5)o4)o3)o2)o1`, the melting point is reported as 261 °C. `COC(=O)CCCc1ccc(C(=O)C=Cc2ccccc2)cc1` showed a melting point of 43 to 44 °C. In the case of `COC(=O)c1ccc(C2CCC(=O)CC2)cc1`, the melting point is reported as 91 to 92 °C. Work on `CC(=O)N(Cc1nc(-c2ccccc2)c(-c2ccccc2)o1)c1cccc(OCC(=O)O)c1` yielded a melting point of 75 to 80 °C. `O=C(C=CC1CCCCC1)NCCc1cccc(OCc2ccccc2)c1` gave a melting point of 98 to 100 °C. In the case of `COc1ccc(CCNC(=O)CCCCC(=O)NC2Cc3ccccc3C2)cc1OC`, the melting point is reported as 162 to 164 °C. `CN(C)c1ccc(-c2cc(-c3ccccc3)nc(-c3ccccc3)c2)cc1` showed a melting point of 128 to 129 °C. `O[C@H]1c2cc(OCc3ccncc3)ccc2OC[C@H]1Cc1cccnc1` (relative stereo) gave a melting point of 100 to 102 °C.
